Source: US12209102B2, “Heterocyclic compounds and uses thereof” (Kumquat Biosciences Inc., priority 2022, dated 2025)

How the values were obtained:
Type in all cases: biochemical
K-Ras G12S = biological target: T1, K-Ras G12S (Homo sapiens, UniProt P01116, G12S); experiment: HTRF resonance energy transfer assay, K-Ras G12S / SOS1 interaction; conditions: HTRF assay of Example 5; read-out: IC50 against K-Ras G12S
T1 construct: made in house; host or cells: E. coli BL21 (DE3)
Excerpt: (§1) This assay can be also used to assess a selective inhibition or reduction of signaling output of a mutant Ras protein relative to a wildtype, or relative to a different mutant Ras protein. For example, the equilibrium interaction of wildtype Kras or K-Ras mutant (e.g., wildtype or a mutant thereof) with SOS1 (e.g., hSOS1) can be assessed as a proxy or an indication for a subject compound's ability to bind and inhibit Ras protein. HTRF assay detects from (i) a fluorescence resonance energy transfer (FRET) donor (e.g., antiGST-Europium) that is bound to GST-tagged K-Ras mutant to (ii) a FRET acceptor (e.g., anti-6His-XL665) bound to a His-tagged hSOS1.
(§2) The assay buffer can contain˜5 mM HEPES pH 7.4, ˜150 mM NaCl, ˜ 1 mM DTT, 0.05% BSA and 0.0025%(v/v) Igepal. A Ras working solution is prepared in an assay buffer containing typically a suitable amount of the protein construct (e.g., GST-tagged K-Ras mutant) and the FRET donor (e.g., antiGST-Eu(K) from Cisbio, France). A SOS1 working solution is prepared in an assay buffer containing suitable amount of the protein construct (e.g., His-hSOS1) and the FRET acceptor (e.g., anti-6His-XL665 from Cisbio, France). A suitable amount of the protein construct will depend on the range of activity or range of IC50 values being detected or under investigation. For detecting IC50 within a range of 500 nM, the protein constructs of the same range of molarity can be utilized.
(§3) A fixed volume of DMSO with or without test compound is transferred into a 384-well plate. Ras working solution is added to all wells of the test plate. SOS1 working solution is added to all wells except for those that are subsequently filled the inhibitor control solution. Upon incubation for about 10 minutes or longer, the fluorescence is measured with a M1000Pro plate reader (Tecan) using HTRF detection (excitation 337 nm, emission 1: 620 nm, emission 2: 665 nm). Compounds are tested in duplicates at different concentrations (for example, 10 μM, 2.5 μM, 0.63 μM, 0.16 μM, 0.04 μM, 0.01 μM test compound). The ratiometric data (i.e., emission 2 divided by emission 1) is used to calculate IC50 values against Ras using GraphPad Prism (GraphPad software). Following this general procedure, samples were tested with or without a subject compound disclosed herein including compounds exemplified in Table 1 to assess their abilities to inhibit a K-Ras mutant relative to another mutant or WT. Signaling output measured in terms of IC50 values can be obtained, a ratio of IC50 against one mutant relative to another mutant can be calculated. For instance, a selective reduction of K-Ras G12D signaling output can be evidenced by a ratio greater than one. In particular, a selective reduction of K-Ras G12D signaling relative to K-Ras WT signaling is evidenced as the ratio of IC50 (against K-Ras WT) to IC50 (against K-Ras G12D) is greater than 1.

K-Ras G12V = biological target: T2, K-Ras G12V (Homo sapiens, UniProt P01116, G12V); experiment: HTRF resonance energy transfer assay, K-Ras G12V / SOS1 interaction; conditions: HTRF assay of Example 5; read-out: IC50 against K-Ras G12V
T2 construct: made in house; host or cells: E. coli BL21 (DE3)
Excerpt: as §1, §2, §3

K-Ras WT = biological target: T3, K-Ras WT (Homo sapiens, UniProt P01116); experiment: HTRF resonance energy transfer assay, K-Ras WT / SOS1 interaction; conditions: HTRF assay of Example 5; read-out: IC50 against K-Ras WT
T3 construct: made in house; host or cells: E. coli BL21 (DE3)
Excerpt: as §1, §2, §3

K-Ras G12D = biological target: T4, K-Ras G12D (Homo sapiens, UniProt P01116, G12D); experiment: HTRF resonance energy transfer assay, K-Ras G12D / SOS1 interaction; conditions: HTRF assay of Example 5; read-out: IC50 against K-Ras G12D
T4 construct: made in house; host or cells: E. coli BL21 (DE3)
Excerpt: as §1, §2, §3

Measured: IC50

T3 sequence (P01116 1-188 isoform P01116-2): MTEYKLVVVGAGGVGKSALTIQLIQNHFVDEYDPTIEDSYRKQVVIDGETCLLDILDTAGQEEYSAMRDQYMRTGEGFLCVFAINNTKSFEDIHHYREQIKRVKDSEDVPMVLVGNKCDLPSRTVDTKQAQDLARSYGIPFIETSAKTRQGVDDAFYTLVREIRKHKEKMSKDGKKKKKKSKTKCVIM
T4 sequence (P01116 1-188 isoform P01116-2 G12D): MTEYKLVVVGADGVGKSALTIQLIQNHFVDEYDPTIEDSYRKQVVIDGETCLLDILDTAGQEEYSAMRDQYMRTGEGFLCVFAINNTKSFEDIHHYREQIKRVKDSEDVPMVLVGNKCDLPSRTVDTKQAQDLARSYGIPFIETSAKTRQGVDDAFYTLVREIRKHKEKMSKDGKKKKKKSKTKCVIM
T1 sequence (P01116 1-188 isoform P01116-2 G12S): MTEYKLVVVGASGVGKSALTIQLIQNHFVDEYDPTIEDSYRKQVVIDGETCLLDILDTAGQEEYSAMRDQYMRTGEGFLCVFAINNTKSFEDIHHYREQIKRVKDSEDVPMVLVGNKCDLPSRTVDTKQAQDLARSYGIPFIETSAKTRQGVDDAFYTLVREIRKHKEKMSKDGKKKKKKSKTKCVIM
T2 sequence (P01116 1-188 isoform P01116-2 G12V): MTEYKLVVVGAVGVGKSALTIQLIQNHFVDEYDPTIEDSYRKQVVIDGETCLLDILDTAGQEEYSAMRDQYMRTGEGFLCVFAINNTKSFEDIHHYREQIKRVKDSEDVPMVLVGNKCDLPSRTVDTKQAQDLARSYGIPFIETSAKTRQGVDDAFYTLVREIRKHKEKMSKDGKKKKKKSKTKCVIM

C=C[C@H]1COc2c(Cl)c(-c3ccc(F)c4sc(N)c(C#N)c34)c(F)c3nc(OC[C@@]45CCCN4C[C@H](F)C5)nc(c23)N1CCC(F)F (single isomer, unassigned) [Compound 906]
< 0.1 µM: all assays above

C=C[C@H]1COc2c(Cl)c(-c3ccc(F)c4sc(N)c(C#N)c34)c(F)c3nc(OC[C@@]45CCCN4C[C@H](F)C5)nc(c23)N1CCOC (single isomer, unassigned) [Compound 917]
< 0.1 µM: all assays above

N#Cc1c(N)sc2c(F)ccc(-c3c(Cl)c4c5c(nc(OC[C@@]67CCCN6C[C@H](F)C7)nc5c3F)N(C3CCN(C5CC5)C3)CCO4)c12 (stereo partly drawn) [Compound 631, 2-amino-4-(8-chloro-4-(1-cyclopropylpyrrolidin-3-yl)-10-fluoro-2-(((2R,7aS)-2-fluorotetrahydro-1H-pyrrolizin-7a(5H)-yl)methoxy)-5,6-dihydro-4H-[1,4]oxazepino[5,6,7-de]quinazolin-9-yl)-7-fluorobenzo[b]thiophene-3-carbonitrile]
< 0.1 µM: all assays above

N#Cc1c(N)sc2c(F)ccc(-c3c(Cl)c4c5c(nc(OC[C@@]67CCCN6C[C@H](F)C7)nc5c3F)N(C3CC35CCNC5)CCO4)c12 (stereo partly drawn) [Compound 735, 2-amino-4-(8-chloro-10-fluoro-2-(((2R,7aS)-2-fluorotetrahydro-1H-pyrrolizin-7a(5H)-yl)methoxy)-4-(5-azaspiro[2.4]heptan-1-yl)-5,6-dihydro-4H-[1,4]oxazepino[5,6,7-de]quinazolin-9-yl)-7-fluorobenzo[b]thiophene-3-carbonitrile]
< 0.1 µM: all assays above

N#Cc1c(N)sc2c(F)ccc(-c3c(Cl)c4c5c(nc(OC[C@@]67CCCN6C[C@H](F)C7)nc5c3F)N(CC3CC3C#N)CCO4)c12 (stereo partly drawn) [Compound 738, 2-amino-4-(8-chloro-4-((2-cyanocyclopropyl)methyl)-10-fluoro-2-(((2R,7aS)-2-fluorotetrahydro-1H-pyrrolizin-7a(5H)-yl)methoxy)-5,6-dihydro-4H-[1,4]oxazepino[5,6,7-de]quinazolin-9-yl)-7-fluorobenzo[b]thiophene-3-carbonitrile]
< 0.1 µM: all assays above

N#Cc1c(N)sc2c(F)ccc(-c3c(Cl)c4c5c(nc(OC[C@@]67CCCN6C[C@H](F)C7)nc5c3F)N(CC(F)F)[C@@H](C3CC(C#N)C3)CO4)c12 (stereo partly drawn) [Compound 753, 2-amino-4-((S)-8-chloro-5-(3-cyanocyclobutyl)-4-(2,2-difluoroethyl)-10-fluoro-2-(((2R,7aS)-2-fluorotetrahydro-1H-pyrrolizin-7a(5H)-yl)methoxy)-5,6-dihydro-4H-[1,4]oxazepino[5,6,7-de]quinazolin-9-yl)-7-fluorobenzo[b]thiophene-3-carbonitrile]
< 0.1 µM: all assays above

N#Cc1c(N)sc2c(F)ccc(-c3c(Cl)c4c5c(nc(OC[C@@]67CCCN6C[C@H](F)C7)nc5c3F)N(C3CCNCC3)CCO4)c12 [Compound 760, 2-amino-4-(8-chloro-10-fluoro-2-(((2R,7aS)-2-fluorotetrahydro-1H-pyrrolizin-7a(5H)-yl)methoxy)-4-(piperidin-4-yl)-5,6-dihydro-4H-[1,4]oxazepino[5,6,7-de]quinazolin-9-yl)-7-fluorobenzo[b]thiophene-3-carbonitrile]
< 0.1 µM: all assays above

CC(O)C1COc2c(Cl)c(-c3ccc(F)c4sc(N)c(C#N)c34)c(F)c3nc(OC[C@@]45CCCN4C[C@H](F)C5)nc(c23)N1CC1(N(C)C)CCC1 (stereo partly drawn) [Compound 773, 2-amino-4-(8-chloro-4-((1-(dimethylamino)cyclobutyl)methyl)-10-fluoro-2-(((2R,7aS)-2-fluorotetrahydro-1H-pyrrolizin-7a(5H)-yl)methoxy)-5-(1-hydroxyethyl)-5,6-dihydro-4H-[1,4]oxazepino[5,6,7-de]quinazolin-9-yl)-7-fluorobenzo[b]thiophene-3-carbonitrile]
< 0.1 µM: all assays above

CNCCCN1CCOc2c(Cl)c(-c3ccc(F)c4sc(N)c(C#N)c34)c(F)c3nc(OC[C@@]45CCCN4C[C@H](F)C5)nc1c23 [Compound 778, 2-amino-4-(8-chloro-10-fluoro-2-(((2R,7aS)-2-fluorotetrahydro-1H-pyrrolizin-7a(5H)-yl)methoxy)-4-(3-(methylamino)propyl)-5,6-dihydro-4H-[1,4]oxazepino[5,6,7-de]quinazolin-9-yl)-7-fluorobenzo[b]thiophene-3-carbonitrile]
< 0.1 µM: all assays above

N#Cc1c(N)sc2c(F)ccc(-c3c(Cl)c4c5c(nc(OC[C@@]67CCCN6C[C@H](F)C7)nc5c3F)N(C3CCCNC3)CCO4)c12 (stereo partly drawn) [Compound 787, 2-amino-4-(8-chloro-10-fluoro-2-(((2R,7aS)-2-fluorotetrahydro-1H-pyrrolizin-7a(5H)-yl)methoxy)-4-(piperidin-3-yl)-5,6-dihydro-4H-[1,4]oxazepino[5,6,7-de]quinazolin-9-yl)-7-fluorobenzo[b]thiophene-3-carbonitrile]
< 0.1 µM: all assays above

C#C[C@H]1COc2c(Cl)c(-c3ccc(F)c4sc(N)c(C#N)c34)c(F)c3nc(OC[C@@]45CCCN4C[C@H](F)C5)nc(c23)N1CCC(F)F [Compound 788, 2-amino-4-((5S)-8-chloro-4-(3,3-difluoropropyl)-5-ethynyl-10-fluoro-2-(((2R,7aS)-2-fluorotetrahydro-1H-pyrrolizin-7a(5H)-yl)methoxy)-5,6-dihydro-4H-[1,4]oxazepino[5,6,7-de]quinazolin-9-yl)-7-fluorobenzo[b]thiophene-3-carbonitrile]
< 0.1 µM: all assays above

N#Cc1c(N)sc2c(F)ccc(-c3c(Cl)c4c5c(nc(OC[C@@]67CCCN6C[C@H](F)C7)nc5c3F)N(CC(F)F)C(C3CCN3)CO4)c12 (stereo partly drawn) [Compound 816, 2-amino-4-(5-(azetidin-2-yl)-8-chloro-4-(2,2-difluoroethyl)-10-fluoro-2-(((2R,7aS)-2-fluorotetrahydro-1H-pyrrolizin-7a(5H)-yl)methoxy)-5,6-dihydro-4H-[1,4]oxazepino[5,6,7-de]quinazolin-9-yl)-7-fluorobenzo[b]thiophene-3-carbonitrile]
< 0.1 µM: all assays above
